The values below are quoted from earlier work in patent publication US20190263765A1, “SYNERGISTIC ANTICOAGULANT COMPOSITION” (priority 2018, published 2019).

For this data set the following is noted: background statement.

Turning to `CC(=O)CC(c1ccccc1)c1c(O)c2ccccc2oc1=O` (centres unmarked) [warfarin], the “clearance from the body” value is 72 to 96 h.
For `O=c1oc2ccccc2c(O)c1C1CC(c2ccc(-c3ccc(Br)cc3)cc2)Cc2ccccc21` (centres unmarked) [brodifacoum], the “clearance from the body (in words)” value is on record as “requires months”.
